Reference: patent publication US10017827B2, “Herbicide-resistant sunflower plants with multiple herbicide resistant alleles of AHASL1 and methods of use” (BASF AGROCHEMICAL PRODUCTS B.V., priority 2007, dated 2018)
Read-outs that look alike come from different tables or passages of the source. Marks after values point to notes of the source that are not given here.

Tests used:
[1] = tested on: AHAS enzyme, WT line (B7); test: Enzyme assay for AHAS activity, Sets 1 and 2; settings: 100 μM imazamox
[2] = tested on: A122T sunflower genotypes (mean of H2, L3, L4); test: Greenhouse whole-plant response to imazapyr; format: in vivo; settings: 14 DAT
Excerpt: (§1) Experiment was arranged as a randomized block design with a full factorial (sunflower line×treatment) arrangement of treatments and 10 replications.

[3] = tested on: sunflower line L3 (cmsGM40, A122T); test: Greenhouse whole-plant response to imazapyr; format: in vivo; settings: 14 DAT
Excerpt: as §1

[4] = tested on: sunflower line L4 (A122T); test: Greenhouse whole-plant response to imazapyr; format: in vivo; settings: 14 DAT
Excerpt: as §1

[5] = tested on: sunflower line GM40 (A122T); format: in vivo; settings: 160 gr/ha at V4, 14 DAT
[6] = tested on: sunflower line L5 (BTK 47, WT susceptible); settings: for biomass accumulation, % of untreated: L5, 14 DAT
[7] = tested on: sunflower line B770 (WT); test: Greenhouse whole-plant response to metsulfuron; settings: 14 DAT
[8] = tested on: sunflower line GM1606 (A122T/A122T); test: Greenhouse whole-plant response to metsulfuron; settings: 14 DAT
[9] = tested on: sunflower line GM40 (A122T/A122T); test: Greenhouse whole-plant response to metsulfuron; settings: 14 DAT
[10] = tested on: sunflower line L4 (A122T/A122T); test: Greenhouse whole-plant response to metsulfuron; settings: 14 DAT
[11] = tested on: sunflower hybrid cmsGM40xL4 (A122T/A122T); test: Greenhouse whole-plant response to metsulfuron; settings: 14 DAT
[12] = tested on: sunflower hybrid cmsGM40xBTSu-R1 (A122T/P197L); test: Greenhouse whole-plant response to metsulfuron; settings: 14 DAT
[13] = A122T mean (H2,L3,L4), 2x (160 g ai/ha)
[14] = A122T mean (H2,L3,L4), 3x (240 g ai/ha)

COCc1cnc(C2=NC(C)(C(C)C)C(=O)N2)c(C(=O)O)c1 (stereo not shown) [imazamox]
AHAS activity, % of untreated control ([1]; Set 1): 17% | AHAS activity, % of untreated control ([1]; Set 2): 11%

CC(C)C1(C)N=C(c2ncccc2C(=O)O)NC1=O (stereo not shown) [imazapyr]
height reduction, % of untreated controls ([2]; A122T homozygous, 0.5x): 0.1% | height reduction, % of untreated controls ([2]; A122T homozygous, 6x): 18.8% | reduction in biomass weight ([2]; A122T homozygous, higher dose (6x)): 25% | Phytotoxicity Index (0-9) ([2]; A122T mean (H2,L3,L4), 0.5x (40 g ai/ha)): 0.3 | Phytotoxicity Index (0-9) ([2]; A122T mean (H2,L3,L4), 1x (80 g ai/ha)): 0.3 | Phytotoxicity Index (0-9) [2, 13]: 0.3 | plant height, % of untreated [2, 13]: 98.0% | Phytotoxicity Index (0-9) [2, 14]: 0.3 | biomass accumulation, % of untreated [2, 14]: 90.0** % | Phytotoxicity Index (0-9) ([2]; A122T mean (H2,L3,L4), 4x (320 g ai/ha)): 0.5 | Phytotoxicity Index (0-9) ([2]; A122T mean (H2,L3,L4), 5x (400 g ai/ha)): 0.8 | Phytotoxicity Index (0-9) ([2]; A122T mean (H2,L3,L4), 6x (480 g ai/ha)): 1.2 | Phytotoxicity Index (0-9) ([3]; 0.5x (40 g ai/ha)): 0.4 | Phytotoxicity Index (0-9) ([3]; 1x (80 g ai/ha)): 0.4 | Phytotoxicity Index (0-9) ([3]; 2x (160 g ai/ha)): 0.4 | plant height, % of untreated ([3]; 2x (160 g ai/ha)): 92.0% | Phytotoxicity Index (0-9) ([3]; 3x (240 g ai/ha)): 0.5 | Phytotoxicity Index (0-9) ([3]; 4x (320 g ai/ha)): 1.0 | biomass accumulation, % of untreated ([3]; 4x (320 g ai/ha)): 75.0% | Phytotoxicity Index (0-9) ([3]; 5x (400 g ai/ha)): 2.0 | Phytotoxicity Index (0-9) ([3]; 6x (480 g ai/ha)): 2.5 | Phytotoxicity Index (0-9) ([4]; 0.5x (40 g ai/ha)): 0.0 | biomass accumulation, % of untreated ([4]; 0.5x (40 g ai/ha)): 100.0% | plant height, % of untreated ([4]; 0.5x (40 g ai/ha)): 100.0% | Phytotoxicity Index (0-9) ([4]; 1x (80 g ai/ha)): 0.0 | plant height, % of untreated ([4]; 1x (80 g ai/ha)): 100.0% | Phytotoxicity Index (0-9) ([4]; 2x (160 g ai/ha)): 0.0 | biomass accumulation, % of untreated ([4]; 2x (160 g ai/ha)): 97.0% | Phytotoxicity Index (0-9) ([4]; 3x (240 g ai/ha)): 0.0 | plant height, % of untreated ([4]; 3x (240 g ai/ha)): 97.0% | Phytotoxicity Index (0-9) ([4]; 4x (320 g ai/ha)): 0.0 | Phytotoxicity Index (0-9) ([4]; 5x (400 g ai/ha)): 0.0 | Phytotoxicity Index (0-9) ([4]; 6x (480 g ai/ha)): 0.5 | Mean Phytotoxicity Index (PI, 0-9) [5]: 0.2 | biomass accumulation, % of untreated ([6]; 1x (80 g ai/ha)): 15.0% | biomass accumulation, % of untreated ([6]; 2x (160 g ai/ha)): 15.0% | biomass accumulation, % of untreated ([6]; 3x (240 g ai/ha)): 15.0% | biomass accumulation, % of untreated ([6]; 4x (320 g ai/ha)): 15.0% | biomass accumulation, % of untreated ([6]; 5x (400 g ai/ha)): 15.0% | biomass accumulation, % of untreated ([6]; 6x (480 g ai/ha)): 15.0% | Phytotoxicity Index (0-9) ([6]; in vivo): 9

COC(=O)c1ccccc1S(=O)(=O)NC(=O)Nc1nc(C)nc(OC)n1 [metsulfuron]
Dry Matter accumulation (DMA) ([7]; 1X (5 g ai./ha)): 28.43^b | Mean Height Reduction (PH) ([7]; 1X (5 g ai./ha)): 21.73^a* | Phytotoxicity Index (PI, 0-9) ([7]; 1X (5 g ai./ha)): 8.50^bc | Dry Matter accumulation (DMA) ([7]; 2X (10 g ai./ha)): 28.77^b | Mean Height Reduction (PH) ([7]; 2X (10 g ai./ha)): 18.20^a | Phytotoxicity Index (PI, 0-9) ([7]; 2X (10 g ai./ha)): 9.00^d | Dry Matter accumulation (DMA) ([8]; 1X (5 g ai./ha)): 30.39^b | Mean Height Reduction (PH) ([8]; 1X (5 g ai./ha)): 21.55^a | Phytotoxicity Index (PI, 0-9) ([8]; 1X (5 g ai./ha)): 8.70^d | Dry Matter accumulation (DMA) ([8]; 2X (10 g ai./ha)): 20.45^a | Mean Height Reduction (PH) ([8]; 2X (10 g ai./ha)): 21.70^a | Phytotoxicity Index (PI, 0-9) ([8]; 2X (10 g ai./ha)): 9.00^d | Dry Matter accumulation (DMA) ([9]; 1X (5 g ai./ha)): 25.73^ab | Mean Height Reduction (PH) ([9]; 1X (5 g ai./ha)): 21.39^a | Phytotoxicity Index (PI, 0-9) ([9]; 1X (5 g ai./ha)): 9.00^d | Dry Matter accumulation (DMA) ([9]; 2X (10 g ai./ha)): 20.69^a | Mean Height Reduction (PH) ([9]; 2X (10 g ai./ha)): 21.17^a | Phytotoxicity Index (PI, 0-9) ([9]; 2X (10 g ai./ha)): 9.00^d | Dry Matter accumulation (DMA) ([10]; 1X (5 g ai./ha)): 25.40^ab | Mean Height Reduction (PH) ([10]; 1X (5 g ai./ha)): 19.47^a | Phytotoxicity Index (PI, 0-9) ([10]; 1X (5 g ai./ha)): 8.25^b | Dry Matter accumulation (DMA) ([10]; 2X (10 g ai./ha)): 18.80^a | Mean Height Reduction (PH) ([10]; 2X (10 g ai./ha)): 18.73^a | Phytotoxicity Index (PI, 0-9) ([10]; 2X (10 g ai./ha)): 8.5^c | Dry Matter accumulation (DMA) ([11]; 1X (5 g ai./ha)): 19.90^a | Mean Height Reduction (PH) ([11]; 1X (5 g ai./ha)): 22.45^a | Phytotoxicity Index (PI, 0-9) ([11]; 1X (5 g ai./ha)): 8.67^d | Dry Matter accumulation (DMA) ([11]; 2X (10 g ai./ha)): 18.23^a | Mean Height Reduction (PH) ([11]; 2X (10 g ai./ha)): 20.56^a | Phytotoxicity Index (PI, 0-9) ([11]; 2X (10 g ai./ha)): 8.82^cd | Mean Height Reduction (PH) ([12]; 1X (5 g ai./ha)): 77.04^b | Phytotoxicity Index (PI, 0-9) ([12]; 1X (5 g ai./ha)): 0.00^a | Dry Matter accumulation (DMA) ([12]; 2X (10 g ai./ha)): 72.66^c
